Results reported in ChEMBL document CHEMBL3046969, “Synthesis, structure, and biological assay of cinnamic amides as potential EGFR kinase inhibitors” (Med Chem Res, 2013).

Assays:
[1] = target: Epidermal growth factor receptor (Homo sapiens, UniProt P00533); experiment: Inhibition of autophosphorylation of His6-tagged EGFR cytoplasmic domain (unknown origin) expressed in Sf9 cells by DELFIA time resolved fluorometry; type: cell-based
MCF7 = experiment: cells; type: functional, cell-based; conditions: Homo sapiens, MCF7, 48 h
Description: Antiproliferative activity against Homo sapiens (human) MCF-7 cells overexpressing EGFR assessed as inhibition of cell survival after 48 hr by MTT assay

Sequence of Epidermal growth factor receptor (P00533 whole entry, the tested form may be a part): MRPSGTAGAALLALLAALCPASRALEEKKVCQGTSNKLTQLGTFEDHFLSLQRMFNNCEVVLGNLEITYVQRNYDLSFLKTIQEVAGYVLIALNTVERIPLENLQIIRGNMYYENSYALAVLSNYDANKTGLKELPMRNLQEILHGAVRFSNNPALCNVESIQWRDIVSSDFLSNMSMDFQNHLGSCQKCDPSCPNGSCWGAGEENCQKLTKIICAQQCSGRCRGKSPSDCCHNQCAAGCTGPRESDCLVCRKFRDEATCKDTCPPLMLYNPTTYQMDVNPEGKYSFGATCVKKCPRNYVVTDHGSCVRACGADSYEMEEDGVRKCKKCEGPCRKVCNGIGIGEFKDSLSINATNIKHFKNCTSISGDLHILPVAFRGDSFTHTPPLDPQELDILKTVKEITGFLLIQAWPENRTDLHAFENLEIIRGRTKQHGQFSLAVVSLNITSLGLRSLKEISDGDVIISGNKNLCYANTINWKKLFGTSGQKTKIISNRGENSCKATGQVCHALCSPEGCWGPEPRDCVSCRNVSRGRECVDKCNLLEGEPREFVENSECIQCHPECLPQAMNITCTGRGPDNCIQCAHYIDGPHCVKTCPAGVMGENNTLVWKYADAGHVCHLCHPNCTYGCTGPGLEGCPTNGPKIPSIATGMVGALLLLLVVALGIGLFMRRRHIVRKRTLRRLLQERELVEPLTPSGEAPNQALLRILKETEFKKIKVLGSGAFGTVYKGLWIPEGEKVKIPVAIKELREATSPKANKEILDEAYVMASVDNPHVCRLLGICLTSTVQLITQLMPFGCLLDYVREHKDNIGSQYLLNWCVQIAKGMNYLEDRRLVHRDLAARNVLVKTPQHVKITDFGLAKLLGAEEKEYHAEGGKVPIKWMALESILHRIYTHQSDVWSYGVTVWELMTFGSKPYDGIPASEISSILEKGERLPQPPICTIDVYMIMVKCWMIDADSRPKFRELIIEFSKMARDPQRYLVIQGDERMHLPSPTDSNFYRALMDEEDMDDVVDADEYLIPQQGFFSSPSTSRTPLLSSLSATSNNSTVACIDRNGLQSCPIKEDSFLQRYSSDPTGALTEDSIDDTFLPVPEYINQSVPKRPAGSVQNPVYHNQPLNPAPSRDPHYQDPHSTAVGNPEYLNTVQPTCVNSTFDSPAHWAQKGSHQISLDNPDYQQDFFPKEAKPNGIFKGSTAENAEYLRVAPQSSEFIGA

Row | SMILES | IC50 [1] [µM] | IC50 (MCF7) [µM]
1 | O=C(/C=C/c1ccccc1)Nc1cc(F)c(F)c(F)c1 | 12.9 | 2.89
2 | CC(C)c1ccc(NC(=O)/C=C/c2ccccc2)cc1 | 14.6 | 5.39
3 | O=C(/C=C/c1ccccc1)Nc1cc(Cl)cc(Cl)c1 | 13.9 | 4.47
4 | CC(C)(C)NC(=O)/C=C/c1ccccc1 [N-TERT-BUTYLCINNAMAMIDE] | 29.8 | 11.1
5 | CCCCCCCCCCCCNC(=O)/C=C/c1ccccc1 [N-DODECYLCINNAMAMIDE] | 38.5 | 13.4
6 | O=C(/C=C/c1ccccc1)Nc1cc(F)cc(F)c1 | 13.2 | 4.65
7 | C#Cc1cccc(Nc2ncnc3cc(OCCOC)c(OCCOC)cc23)c1 [ERLOTINIB] |  | 0.22

Next, values leading:

Row | IC50 [1] [µM] | IC50 (MCF7) [µM] | SMILES
8 | 16.2 | 4 | O=C(/C=C/c1ccccc1)Nc1ccc(Cl)cc1Cl
9 | 19.7 | 5.83 | Cc1cccc(NC(=O)/C=C/c2ccccc2)c1 [N-M-TOLYLCINNAMAMIDE]
10 | 9.35 | 2.43 | CCOc1ccccc1NC(=O)/C=C/c1ccccc1
11 | 12.3 | 3.17 | Cc1ccccc1NC(=O)/C=C/c1ccccc1 [N-O-TOLYLCINNAMAMIDE]
12 | 12.7 | 3.26 | Cc1ccc(NC(=O)/C=C/c2ccccc2)cc1 [N-P-TOLYLCINNAMAMIDE]
13 | 11.7 | 4.14 | O=C(/C=C/c1ccccc1)Nc1ccc(F)cc1F
14 | 15.7 | 4.05 | O=C(/C=C/c1ccccc1)Nc1ccccc1Br
15 | 10.2 | 3.3 | CCOc1ccc(NC(=O)/C=C/c2ccccc2)cc1
